Test results: US9617267B2, “Compounds and methods for kinase modulation, and indications therefor” (Plexxikon Inc., priority 2009, dated 2017)
Like-named read-outs stand apart in the source and are kept apart here.

What was measured:
CYP2C9 = CYP2C9 (Homo sapiens (Human), UniProt P11712); assay: CYP enzyme inhibition, fluorescent substrate (MFC)
Outline: (§1)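 Human CYP activity was followed by the fluorescence of the metabolized product of a known substrate, which falls as metabolism is inhibited. Compounds from 100 mM DMSO stocks were serially diluted 1:1 over 10 points in co-factor mix and preincubated 10 min at 37 °C. IC50 was fitted from signal versus concentration.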

CYP2D6 = CYP2D6 (Homo sapiens (Human), UniProt P10635); assay: CYP enzyme inhibition, fluorescent substrate (AMMC); assay type: in vitro ADME; conditions: read-out: Cyp IC50 2D6
Sequence of CYP2D6 (P10635 whole entry): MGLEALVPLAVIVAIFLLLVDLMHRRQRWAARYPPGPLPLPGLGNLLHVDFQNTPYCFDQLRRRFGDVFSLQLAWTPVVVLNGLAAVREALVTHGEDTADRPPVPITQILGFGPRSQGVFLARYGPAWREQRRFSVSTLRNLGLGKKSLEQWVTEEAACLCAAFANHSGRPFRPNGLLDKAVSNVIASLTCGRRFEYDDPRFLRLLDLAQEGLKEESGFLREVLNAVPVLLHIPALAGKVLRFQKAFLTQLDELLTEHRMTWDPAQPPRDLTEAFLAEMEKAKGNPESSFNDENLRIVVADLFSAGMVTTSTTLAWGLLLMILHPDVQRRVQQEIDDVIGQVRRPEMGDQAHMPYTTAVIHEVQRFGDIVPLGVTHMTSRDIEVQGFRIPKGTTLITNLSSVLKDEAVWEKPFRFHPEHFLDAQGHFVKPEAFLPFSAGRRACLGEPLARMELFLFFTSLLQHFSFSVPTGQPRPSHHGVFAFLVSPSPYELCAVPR
Outline: (§2)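 Ten-point 1:1 compound dilutions in NADPH-regenerating cofactor mix, pre-incubated 10 min at 37 °C before enzyme/substrate addition: CYP1A2 0.5 pmol with 5 μM CEC, 15 min, 409 ex/460 em; CYP2D6 1.5 pmol with 1.5 μM AMMC, 30 min, 409 ex/530 em. IC50 from fluorescent product vs concentration.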

CYP3A4(BQ) = CYP3A4(BQ) (Homo sapiens (Human), UniProt P08684); assay: CYP enzyme inhibition, fluorescent substrate BQ
Sequence of CYP3A4(BQ) (P08684 whole entry): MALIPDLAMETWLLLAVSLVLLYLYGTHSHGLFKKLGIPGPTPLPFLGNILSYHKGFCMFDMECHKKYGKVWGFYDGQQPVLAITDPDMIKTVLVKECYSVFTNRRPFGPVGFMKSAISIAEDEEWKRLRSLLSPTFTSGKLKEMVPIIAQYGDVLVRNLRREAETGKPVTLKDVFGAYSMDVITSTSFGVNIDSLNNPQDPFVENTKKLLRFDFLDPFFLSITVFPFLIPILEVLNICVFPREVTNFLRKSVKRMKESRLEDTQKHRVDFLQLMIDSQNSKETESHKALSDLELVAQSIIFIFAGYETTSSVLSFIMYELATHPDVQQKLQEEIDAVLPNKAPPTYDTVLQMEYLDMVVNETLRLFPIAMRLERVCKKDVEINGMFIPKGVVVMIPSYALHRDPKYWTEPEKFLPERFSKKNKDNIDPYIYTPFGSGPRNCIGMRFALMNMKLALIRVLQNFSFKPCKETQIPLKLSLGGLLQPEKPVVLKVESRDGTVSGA
Method: CYP (Cytochrome P450) enzymes are the major drug metabolizing enzymes present in the liver. The inhibition of CYP enzyme activity (IC50) for each of CYP1A2, CYP2C19, CYP2C9, CYP2D6, CYP3A4(BFC) and CYP3A4(BQ) is determined for compounds, where inhibition of metabolism of a known substrate leads to a decrease in the fluorescence of the metabolized product. The fluorescence of the product is monitored as a function of compound concentration.
Compounds are dissolved in dimethyl sulfoxide to a concentration of 100 mM. These are diluted 1 μL into 82 μL of acetonitrile. […] These are then serially diluted 1:1 (160 μL to 160 μL co-factor mix) for a total of 10 points. A 10 μL aliquot of this final mixture is dispensed into 384 well assay plates and incubated for 10 minutes at 37° C. […] Assay plates are incubated at 37° C. […] The signal versus compound concentration is used to determine the IC50. The enzymes and substrates for this assay are obtained from BD Biosciences.

c-Raf-1 = c-Raf-1 (Homo sapiens, UniProt P04049); assay: c-Raf-1 kinase activity biochemical assay (AlphaScreen, biotin-MEK1 phosphorylation)
Sequence of c-Raf-1 (P04049 whole entry, looked up): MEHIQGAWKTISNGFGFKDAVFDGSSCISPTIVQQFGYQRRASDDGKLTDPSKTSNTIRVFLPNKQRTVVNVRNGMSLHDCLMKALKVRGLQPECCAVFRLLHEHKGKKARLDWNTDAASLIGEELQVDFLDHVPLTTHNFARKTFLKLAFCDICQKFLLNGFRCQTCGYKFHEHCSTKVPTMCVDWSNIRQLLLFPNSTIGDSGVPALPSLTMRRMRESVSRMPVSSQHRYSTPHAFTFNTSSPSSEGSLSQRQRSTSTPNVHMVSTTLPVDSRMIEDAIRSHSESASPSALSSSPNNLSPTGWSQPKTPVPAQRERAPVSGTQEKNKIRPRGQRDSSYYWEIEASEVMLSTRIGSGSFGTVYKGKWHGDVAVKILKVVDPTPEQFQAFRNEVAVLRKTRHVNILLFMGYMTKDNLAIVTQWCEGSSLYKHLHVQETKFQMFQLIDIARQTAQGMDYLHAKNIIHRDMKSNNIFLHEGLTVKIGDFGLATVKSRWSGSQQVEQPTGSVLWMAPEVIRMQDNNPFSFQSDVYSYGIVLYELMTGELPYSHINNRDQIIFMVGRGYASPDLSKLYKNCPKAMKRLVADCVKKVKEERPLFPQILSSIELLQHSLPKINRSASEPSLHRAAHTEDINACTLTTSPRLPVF
Outline: (§3)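 Biotin-MEK1 phosphorylation measured after 45 min kinase reaction at RT with 100 μM ATP final; compounds tested at 8 points from 0.1 mM DMSO stock.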

B-Raf V600E = B-Raf V600E (Homo sapiens (Human), UniProt P15056, V600E); assay: B-Raf V600E kinase activity biochemical assay (AlphaScreen, biotin-MEK1 phosphorylation); conditions: for IC50: B-Raf V600E; for Biochemical activity ratio V600E/C: ratio of IC50 B-Raf V600E / c-Raf-1
Sequence of B-Raf V600E (P15056 whole entry V600E): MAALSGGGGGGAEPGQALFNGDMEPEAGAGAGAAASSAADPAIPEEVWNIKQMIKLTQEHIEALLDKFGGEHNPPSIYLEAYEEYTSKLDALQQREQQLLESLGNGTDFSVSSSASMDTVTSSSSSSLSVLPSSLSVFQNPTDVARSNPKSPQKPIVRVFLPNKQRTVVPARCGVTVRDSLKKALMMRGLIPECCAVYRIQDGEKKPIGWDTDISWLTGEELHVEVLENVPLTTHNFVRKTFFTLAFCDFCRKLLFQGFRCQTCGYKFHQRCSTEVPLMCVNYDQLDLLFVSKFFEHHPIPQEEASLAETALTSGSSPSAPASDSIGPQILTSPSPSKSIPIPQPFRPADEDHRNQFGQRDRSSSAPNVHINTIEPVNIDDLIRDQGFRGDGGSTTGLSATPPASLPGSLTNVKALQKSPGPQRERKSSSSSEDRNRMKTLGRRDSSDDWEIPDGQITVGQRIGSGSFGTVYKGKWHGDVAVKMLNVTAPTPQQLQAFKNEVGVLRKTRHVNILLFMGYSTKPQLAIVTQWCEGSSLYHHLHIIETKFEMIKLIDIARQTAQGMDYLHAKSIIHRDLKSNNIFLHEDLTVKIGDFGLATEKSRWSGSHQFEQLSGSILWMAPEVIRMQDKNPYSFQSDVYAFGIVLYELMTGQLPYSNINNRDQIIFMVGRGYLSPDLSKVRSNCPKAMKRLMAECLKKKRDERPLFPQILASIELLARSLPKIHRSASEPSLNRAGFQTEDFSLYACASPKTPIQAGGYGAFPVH
Outline: as §3

B-Raf [1] = target: B-Raf (Homo sapiens (Human), UniProt P15056); assay: B-Raf kinase activity biochemical assay (AlphaScreen, biotin-MEK1 phosphorylation); conditions: B-Raf
Sequence of B-Raf (Homo sapiens (Human), UniProt P15056) (P15056 whole entry): as the sequence (P15056 whole entry V600E) above, with E600V counted along it
Outline: as §3

B-Raf [2] = assay: as above; conditions: for Biochemical activity ratio B/V600E: ratio of IC50 B-Raf / B-Raf V600E; for Biochemical activity ratio B/C: ratio of IC50 B-Raf / c-Raf-1
Outline: as §3

CYP1A2 = CYP1A2 (Homo sapiens (Human), UniProt P05177); assay: CYP enzyme inhibition, fluorescent substrate (CEC)
Sequence of CYP1A2 (P05177 whole entry): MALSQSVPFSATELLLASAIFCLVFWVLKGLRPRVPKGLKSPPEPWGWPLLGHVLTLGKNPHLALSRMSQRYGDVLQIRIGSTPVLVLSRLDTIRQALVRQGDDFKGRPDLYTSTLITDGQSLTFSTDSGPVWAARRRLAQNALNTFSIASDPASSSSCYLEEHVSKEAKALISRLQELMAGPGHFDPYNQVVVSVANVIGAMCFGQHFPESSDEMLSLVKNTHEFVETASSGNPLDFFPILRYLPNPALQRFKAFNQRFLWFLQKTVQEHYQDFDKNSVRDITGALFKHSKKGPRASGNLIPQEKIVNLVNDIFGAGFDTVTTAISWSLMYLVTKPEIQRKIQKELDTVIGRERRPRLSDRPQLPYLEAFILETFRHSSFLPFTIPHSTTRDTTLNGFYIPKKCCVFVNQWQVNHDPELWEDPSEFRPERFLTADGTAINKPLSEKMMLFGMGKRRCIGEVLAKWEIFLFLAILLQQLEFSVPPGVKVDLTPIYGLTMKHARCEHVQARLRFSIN
Outline: as §2

CYP3A4(BFC) = CYP3A4(BFC) (Homo sapiens (Human), UniProt P08684); assay: CYP enzyme inhibition, fluorescent substrate BFC
Sequence of CYP3A4(BFC) (P08684 whole entry): as the sequence (P08684 whole entry) above
Outline: as §1

[3] = Relative solubility by turbidity threshold concentration in aqueous buffers (pH 1.5, 4.5, 6.8, 7.4); assay type: physicochemical; conditions: for turbidity threshold (L, M, H) 1.4: pH 1.4 [sic] (method: SGF pH 1.5); for turbidity threshold (L, M, H) 4.5: pH 4.5 (SIF); for turbidity threshold (L, M, H) 6.8: pH 6.8 (SIF); for turbidity threshold (L, M, H) 7.4: pH 7.4 (HEPES)
Outline: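 Solubility class (high >250 μM, moderate 31.3–250 μM, low <31.3 μM) comes from the concentration where absorbance reaches a 0.01 threshold, averaged across 490/535/650 nm. Samples were compound dilutions from DMSO stock, 1 μL into 99 μL buffer at pH 1.5, 4.5, 6.8 or 7.4.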

CYP2C19 = CYP2C19 (Homo sapiens (Human), UniProt P33261); assay: CYP enzyme inhibition, fluorescent substrate (CEC)
Sequence of CYP2C19 (P33261 whole entry): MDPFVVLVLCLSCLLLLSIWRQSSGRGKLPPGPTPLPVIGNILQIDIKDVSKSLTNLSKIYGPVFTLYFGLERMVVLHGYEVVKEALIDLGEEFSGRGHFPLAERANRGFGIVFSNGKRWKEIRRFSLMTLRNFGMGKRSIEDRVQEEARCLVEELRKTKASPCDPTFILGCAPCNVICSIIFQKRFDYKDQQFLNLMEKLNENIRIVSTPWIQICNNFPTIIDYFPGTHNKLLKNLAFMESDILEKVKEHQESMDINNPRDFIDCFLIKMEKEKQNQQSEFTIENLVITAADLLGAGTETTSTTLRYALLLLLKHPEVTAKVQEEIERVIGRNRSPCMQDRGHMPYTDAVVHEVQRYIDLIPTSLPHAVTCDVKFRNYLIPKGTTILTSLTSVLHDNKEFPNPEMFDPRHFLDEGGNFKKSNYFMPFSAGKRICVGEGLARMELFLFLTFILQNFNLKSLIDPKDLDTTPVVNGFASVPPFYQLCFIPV
Outline: as §1

[4] = read-out: Cyp IC50 2C9, CYP2C9, substrate MFC
[5] = read-out: Cyp IC50 3A4(BQ), CYP3A4, substrate BQ
[6] = read-out: Cyp IC50 3A4(BFC), CYP3A4, substrate BFC
[7] = read-out: Cyp IC50 2C19, CYP2C19, substrate CEC

Sequence of CYP2C9 (P11712 whole entry): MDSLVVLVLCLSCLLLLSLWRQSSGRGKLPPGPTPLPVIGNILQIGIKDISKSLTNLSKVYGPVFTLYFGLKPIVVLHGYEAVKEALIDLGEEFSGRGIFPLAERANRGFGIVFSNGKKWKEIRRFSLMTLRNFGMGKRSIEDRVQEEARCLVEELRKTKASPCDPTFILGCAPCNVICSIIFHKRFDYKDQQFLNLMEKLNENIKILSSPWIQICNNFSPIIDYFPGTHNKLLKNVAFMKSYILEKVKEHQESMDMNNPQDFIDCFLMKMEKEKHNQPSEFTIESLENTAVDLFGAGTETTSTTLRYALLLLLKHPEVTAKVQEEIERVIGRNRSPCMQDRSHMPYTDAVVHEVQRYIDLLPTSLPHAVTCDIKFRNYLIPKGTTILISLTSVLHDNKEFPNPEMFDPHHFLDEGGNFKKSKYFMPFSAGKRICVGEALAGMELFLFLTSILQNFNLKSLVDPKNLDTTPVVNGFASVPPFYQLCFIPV

Row | Structure (SMILES) | IC50 (CYP2C9; [4]) | IC50 (CYP2D6) | IC50 (CYP3A4(BQ); [5]) | IC50 (c-Raf-1) | IC50 (B-Raf V600E) | Biochemical activity ratio V600E/C (B-Raf V600E) | IC50 (B-Raf [1]) | Biochemical activity ratio B/V600E (B-Raf [2]) | Biochemical activity ratio B/C (B-Raf [2]) | IC50 (CYP1A2; human, 15 min) | IC50 (CYP3A4(BFC); [6]) | turbidity threshold (L, M, H) 1.4 [3] | turbidity threshold (L, M, H) 4.5 [3] | turbidity threshold (L, M, H) 6.8 [3] | turbidity threshold (L, M, H) 7.4 [3] | IC50 (CYP2C19; [7]) | IC50 (CYP2C9) | further results
1 | Cc1ncnc2[nH]cc(C(=O)c3c(F)ccc(NS(=O)(=O)c4ccc(C(F)(F)F)cc4)c3F)c12 [P-1001, N-[2,4-Difluoro-3-(4-methyl-7H-pyrrolo[2,3-d]pyrimidine-5-carbonyl)-phenyl]-4-trifluoromethyl-benzenesulfonamide] | > 10 µM | > 10 µM | > 10 µM | < 0.1 µM | > 0.1 µM | >10 | < 0.1 µM | 0.1-10 | 0.1-10 | > 10 µM | < 5 µM | H (high solubility if the threshold concentration is >250 μm) | M (moderate solubility if the threshold concentration is 31.3 μM to 250 μM) | M (moderate solubility if the threshold concentration is 31.3 μM to 250 μM) | M (moderate solubility if the threshold concentration is 31.3 μM to 250 μM) | > 10 µM | – | –
2 | CCCS(=O)(=O)Nc1ccc(F)c(C(=O)c2c[nH]c3ncnc(OCC)c23)c1F [P-1002, Propane-1-sulfonic acid [3-(4-ethoxy-7H-pyrrolo[2,3-d]pyrimidine-5-carbonyl)-2,4-difluoro-phenyl]-amide] | – | > 10 µM | – | < 0.1 µM | < 0.1 µM | 0.1-10 | > 0.1 µM | 0.1-10 | >10 | – | – | H (high solubility if the threshold concentration is >250 μm) | H (high solubility if the threshold concentration is >250 μm) | H (high solubility if the threshold concentration is >250 μm) | H (high solubility if the threshold concentration is >250 μm) | – | > 10 µM | IC50 (CYP3A4(BQ)): > 10 µM; IC50 (CYP1A2): > 10 µM; IC50 (CYP3A4(BFC)): > 10 µM; IC50 (CYP2C19): > 10 µM
3 | Cc1ncnc2[nH]cc(C(=O)c3c(F)ccc(NS(=O)(=O)CC(C)C)c3F)c12 [P-1003, 2-Methyl-propane-1-sulfonic acid [2,4-difluoro-3-(4-methyl-7H-pyrrolo[2,3-d]pyrimidine-5-carbonyl)-phenyl]-amide] | – | > 10 µM | – | < 0.1 µM | < 0.1 µM | 0.1-10 | > 0.1 µM | >10 | >10 | > 10 µM | > 10 µM | H (high solubility if the threshold concentration is >250 μm) | M (moderate solubility if the threshold concentration is 31.3 μM to 250 μM) | M (moderate solubility if the threshold concentration is 31.3 μM to 250 μM) | M (moderate solubility if the threshold concentration is 31.3 μM to 250 μM) | > 10 µM | 5 to 10 µM | IC50 (CYP3A4(BQ)): 5 to 10 µM
4 | COc1ncnc2[nH]cc(C(=O)c3c(F)ccc(NS(=O)(=O)CC(C)C)c3F)c12 [P-1004, 2-Methyl-propane-1-sulfonic acid [2,4-difluoro-3-(4-methoxy-7H-pyrrolo[2,3-d]pyrimidine-5-carbonyl)-phenyl]-amide] | – | > 10 µM | > 10 µM | < 0.1 µM | < 0.1 µM | 0.1-10 | > 0.1 µM | >10 | >10 | > 10 µM | > 10 µM | H (high solubility if the threshold concentration is >250 μm) | H (high solubility if the threshold concentration is >250 μm) | H (high solubility if the threshold concentration is >250 μm) | H (high solubility if the threshold concentration is >250 μm) | > 10 µM | 5 to 10 µM | –
5 | CCCc1ccc(S(=O)(=O)Nc2ccc(F)c(C(=O)c3c[nH]c4ncnc(OC)c34)c2F)cc1 [P-1005, N-[2,4-Difluoro-3-(4-methoxy-7H-pyrrolo[2,3-d]pyrimidine-5-carbonyl)-phenyl]-4-propyl-benzenesulfonamide] | > 10 µM | > 10 µM | > 10 µM | < 0.1 µM | > 0.1 µM | >10 | > 0.1 µM | 0.1-10 | 0.1-10 | > 10 µM | – | H (high solubility if the threshold concentration is >250 μm) | L (low solubility if the threshold concentration is <31.3 μM) | L (low solubility if the threshold concentration is <31.3 μM) | L (low solubility if the threshold concentration is <31.3 μM) | – | – | IC50 (CYP3A4(BFC)): 5 to 10 µM; IC50 (CYP2C19): 5 to 10 µM
6 | CCOc1ncnc2[nH]cc(C(=O)c3c(F)ccc(NS(=O)(=O)c4ccc(C(F)(F)F)cc4)c3F)c12 [P-1006, N-[3-(4-Ethoxy-7H-pyrrolo[2,3-d]pyrimidine-5-carbonyl)-2,4-difluoro-phenyl]-4-trifluoromethyl-benzenesulfonamide] | – | > 10 µM | > 10 µM | < 0.1 µM | > 0.1 µM | >10 | > 0.1 µM | 0.1-10 | 0.1-10 | – | < 5 µM | L (low solubility if the threshold concentration is <31.3 μM) | L (low solubility if the threshold concentration is <31.3 μM) | L (low solubility if the threshold concentration is <31.3 μM) | H (high solubility if the threshold concentration is >250 μm) | > 10 µM | 5 to 10 µM | IC50 (CYP1A2; read-out: Cyp IC50 1A2, CYP1A2, substrate CEC): > 10 µM
7 | CCCS(=O)(=O)Nc1ccc(F)c(C(=O)c2c[nH]c3ncnc(Nc4ccccc4)c23)c1F [P-1048, Propane-1-sulfonic acid [2,4-difluoro-3-(4-phenylamino-7H-pyrrolo[2,3-d]pyrimidine-5-carbonyl)-phenyl]-amide] | > 10 µM | > 10 µM | > 10 µM | – | < 0.1 µM | – | – | – | – | > 10 µM | > 10 µM | – | – | – | – | > 10 µM | – | –
8 | Cc1nn(C)cc1Nc1ncnc2[nH]cc(C(=O)c3c(F)ccc(NS(=O)(=O)c4ccccc4F)c3F)c12 [P-1154, N-{3-[4-(1,3-Dimethyl-1H-pyrazol-4-ylamino)-7H-pyrrolo[2,3-d]pyrimidine-5-carbonyl]-2,4-difluoro-phenyl}-2-fluoro-benzenesulfonamide] | > 10 µM | > 10 µM | > 10 µM | – | – | – | – | – | – | > 10 µM | > 10 µM | L (low solubility if the threshold concentration is <31.3 μM) | L (low solubility if the threshold concentration is <31.3 μM) | L (low solubility if the threshold concentration is <31.3 μM) | L (low solubility if the threshold concentration is <31.3 μM) | > 10 µM | – | –
